Measurements as given in US9657057B2, “Dipeptide and tripeptide epoxy ketone protease inhibitors” (Onyx Therapeutics, Inc., priority 2013, dated 2017).
Values after ≈ are worked out from the molar mass of the structure shown. Read-outs that look alike come from different tables or passages of the source.

Key:
[1] = target: T1, LMP2 (Homo sapiens, UniProt P28065+P40306); assay: ProCISE proteasome subunit assay, LMP2; assay type: biochemical
T1 construct: endogenous in cells; host or cells: MOLT-4
Experimental: (§1) This assay was used to assess the inhibitory activity against each of LMP2, LMP7, MECL1, β1, β2, and β5. Briefly, test compounds were serially diluted in DMSO at 100× concentration, then diluted to 10× in aqueous hypotonic lysis buffer. Lysate from the human acute lymphoblastic leukemia cell line, MOLT-4, was treated for 1 hour at 25° C. with compound at a final 1× concentration. […] Following this, lysate was denatured in guanidine hydrochloride, and subunits bound to probe were isolated with streptavidin-conjugated sepharose beads. Individual subunits were probed with subunit-specific primary antibodies, followed by HRP-conjugated secondary antibodies. A chemiluminescent substrate was used to generate signal associated with HRP binding, which was detected on a plate reader. Luminescent signal was normalized to protein content, then, percent activity calculated relative to DMSO-treated controls to generate IC50 curves.

[2] = target: T2, LMP7 (Homo sapiens, UniProt P20618+P28062); assay: ProCISE proteasome subunit assay, LMP7; assay type: biochemical; details: MOLT4 lysate Hu 1 h
T2 construct: endogenous in cells; host or cells: MOLT-4
In short: (§2)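 MOLT-4 cell lysate was incubated with compound for 1 h at 25° C, then a subunit-binding probe was applied; probe-bound subunits were pulled down on streptavidin beads after guanidine denaturation and detected with subunit-specific antibodies by HRP chemiluminescence. Signal was normalized to protein and expressed as percent of DMSO control to fit IC50.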

[3] = target: T3, β5 (Homo sapiens, UniProt P20618+P28074); assay: ProCISE proteasome subunit assay, β5; assay type: biochemical; details: MOLT4 lysate Hu 1 h
T3 construct: endogenous in cells; host or cells: MOLT-4
In short: as §2

[4] = Solubility pH 7; assay type: physicochemical; details: pH 7, aqueous buffer
[5] = target: i20S (20S immunoproteasome) (Homo sapiens, UniProt P20618+P28062); assay: 20S proteasome assay, chymotrypsin-like activity (LLVY), i20S; assay type: biochemical; details: LLVY i20S Hu 1 h CONT: IC50 (nM), succinyl-Leu-Leu-Val-Tyr-AMC
From the text: (§3) Assay buffer consisted of TE buffer [20 mmol/L Tris (pH 8.0), 0.5 mmol/L EDTA] with (20S) or without (cell lysate) 0.03% SDS. Reactions were initiated by enzyme or lysate addition and monitored for AMC product formation at 27jC with a plate-based spectofluorometer (Tecan).

[6] = target: c20S (constitutive 20S proteasome) (Homo sapiens, UniProt P20618+P28074); assay: 20S proteasome assay, chymotrypsin-like activity (LLVY), c20S; assay type: biochemical; details: LLVY c20S Hu 1 h CONT: IC50 (nM), succinyl-Leu-Leu-Val-Tyr-AMC
From the text: as §3

[7] = target: MECL1 (Homo sapiens, UniProt P40306+P49720); assay: ProCISE proteasome subunit assay, MECL1; assay type: biochemical; details: MOLT-4 lysate, 1 hour at 25° C.
Experimental: as §1

[8] = target: β1 (Homo sapiens, UniProt P28072+Q99436); assay: ProCISE proteasome subunit assay, β1; assay type: biochemical; details: MOLT-4 lysate, 1 hour at 25° C.
Experimental: as §1

[9] = target: β2 (Homo sapiens, UniProt P49720+Q99436); assay: ProCISE proteasome subunit assay, β2; assay type: biochemical; details: MOLT-4 lysate, 1 hour at 25° C.
Experimental: as §1

IC50 ([1]; MOLT4 lysate Hu 1 h) [nM]	IC50 [2] [µM]	IC50 [3] [µM]	solubility [4] [µg/mL]	IC50 [5] [nM]	IC50 [6] [nM]	IC50 ([1]; ProCISE LMP2 MOLT4 lysate Hu 1 h CONT: IC50 (nM), MOLT4 lysate Hu 1 h) [nM]	IC50 ([1]; ProCISE, MOLT-4 lysate, 1 hour at 25° C., read-out: LMP2) [nM]	IC50 [7] [µM]	IC50 [8] [µM]	IC50 [9] [µM]	SMILES
471	19.7	> 250	55.5 (≈ 103 µM)	19500	64400						COc1ccc(C[C@H](NC(=O)[C@@H](C)NC(=O)c2ncc[nH]2)C(=O)N[C@@H](CC2CCCC2)C(=O)[C@@]2(C)CO2)cc1 [Compound C-2034, N—((R)-1-(((S)-1-(((S)-3-cyclopentyl-1-((R)-2-methyloxiran-2-yl)-1-oxopropan-2-yl)amino)-3-(4-methoxyphenyl)-1-oxopropan-2-yl)amino)-1-oxopropan-2-yl)-1H-imidazole-2-carboxamide]
274	3.46	9.84	86.7 (≈ 166 µM)								COc1ccc(C[C@H](NC(=O)[C@@](C)(O)C(F)(F)F)C(=O)N[C@@H](Cc2ccccc2)C(=O)[C@@]2(C)CO2)cc1 [Compound C-3007, (R)-3,3,3-Trifluoro-2-hydroxy-N—((S)-3-(4-methoxyphenyl)-1-(((S)-1-((R)-2-methyloxiran-2-yl)-1-oxo-3-phenylpropan-2-yl)amino)-1-oxopropan-2-yl)-2-methylpropanamide]
						109	109	> 250	99.2	> 250	COc1ccc(C[C@H](NC(=O)c2cccc(=O)[nH]2)C(=O)N[C@@H](Cc2ccccc2)C(=O)[C@@]2(C)CO2)cc1 [Compound C-3008, N—((S)-3-(4-Methoxyphenyl)-1-(((S)-1-((R)-2-methyloxiran-2-yl)-1-oxo-3-phenylpropan-2-yl)amino)-1-oxopropan-2-yl)-6-oxo-1,6-dihydropyridine-2-carboxamide]
517	4.57	8.29		9890	87800						COc1ccc(C[C@H](NC(=O)[C@H]2CCCC(=O)N2)C(=O)N[C@@H](Cc2ccccc2)C(=O)[C@@]2(C)CO2)cc1 [Compound C-3009, (R)—N—((S)-3-(4-Methoxyphenyl)-1-(((S)-1-((R)-2-methyloxiran-2-yl)-1-oxo-3-phenylpropan-2-yl)amino)-1-oxopropan-2-yl)-6-oxopiperidine-2-carboxamide]
